Measurements from US10947252B2, “Inhibitors of KEAP1-Nrf2 protein-protein interaction” (Janssen Pharmaceutica NV, priority 2018, dated 2021).

Columns and labels:
[1] = molecular target: Kelch domain of human KEAP1 (321-624 aa) (Homo sapiens (Human), UniProt Q14145); assay: KEAP1 KELCH ThermoFluor binding assay; conditions: KEAP Kelch […], 1,8-ANS, pH 7.0, average of results obtained, read-out: Tf Kd;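 also: Ligand-induced melting temperature shift of E. coli-expressed KEAP1 Kelch protein, Kd estimated from concentration-response curves of ΔTm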
Sequence of Kelch domain of human KEAP1 (321-624 aa) (Q14145 321-624): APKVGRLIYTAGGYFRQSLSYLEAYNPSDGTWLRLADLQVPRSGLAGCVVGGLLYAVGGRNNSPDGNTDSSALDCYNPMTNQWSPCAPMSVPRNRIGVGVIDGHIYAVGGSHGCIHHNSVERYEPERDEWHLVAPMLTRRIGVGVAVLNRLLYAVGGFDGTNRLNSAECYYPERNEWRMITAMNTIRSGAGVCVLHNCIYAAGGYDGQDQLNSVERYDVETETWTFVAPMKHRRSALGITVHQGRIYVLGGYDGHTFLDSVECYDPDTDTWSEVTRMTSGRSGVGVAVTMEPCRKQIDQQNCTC

[2] = test system: Glo-Response ARE-luc2P HEK293 cell line; assay: ARE luciferase reporter cell-based assay; conditions: Homo sapiens, HEK293, 24 h, average of results obtained;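 also: luciferase signal tracks Nrf2 activation of the ARE once compounds disrupt KEAP1-Nrf2 binding, read with One-Glo reagent, DMSO serving as low control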

Structure (SMILES) | Kd [1] | EC50 [2]
Cc1ccc([C@H](c2ccn3c(C(F)(F)F)nnc3c2)C(C)(C)C(=O)O)cc1CN1CC2(CCOCC2)Oc2ncccc2S1(=O)=O (single isomer, unassigned) [Example 321, (*R)-3-(3-((1′,1′-Dioxido-2,3,5,6-tetrahydrospiro[pyran-4,4′-pyrido[2,3-b][1,4,5]oxathiazepin]-2′(3′H)-yl)methyl)-4-methylphenyl)-2,2-dimethyl-3-(3-(trifluoromethyl)-[1,2,4]triazolo[4,3-a]pyridin-7-yl)propanoic Acid] | < 1 nM | 22 nM
Cc1cnc2c(c1)S(=O)(=O)N(Cc1cc([C@@H](c3ccn4c(C(F)(F)F)nnc4c3)C(C)(C)C(=O)O)ccc1C)CC1(CC1)O2 (single isomer, unassigned) [Example 323, (*S)-2,2-Dimethyl-3-(4-methyl-3-((8′-methyl-1′,1′-dioxidospiro[cyclopropane-1,4′-pyrido[2,3-b][1,4,5]oxathiazepin]-2′(3′H)-yl)methyl)phenyl)-3-(3-(trifluoromethyl)-[1,2,4]triazolo[4,3-a]pyridin-7-yl)propanoic Acid] | 298 nM | 16200 nM
Cc1ccc([C@@H](c2ccn3c(C(F)(F)F)nnc3c2C)C(C)(C)C(=O)O)nc1CN1CC2(CCOCC2)Oc2nc(OCCN3CCOCC3)ccc2S1(=O)=O (single isomer, unassigned) [Example 325, (*S)-2,2-Dimethyl-3-(8-methyl-3-(trifluoromethyl)-[1,2,4]triazolo[4,3-a]pyridin-7-yl)-3-(5-methyl-6-((7′-(2-morpholinoethoxy)-1′,1′-dioxido-2,3,5,6-tetrahydrospiro[pyran-4,4′-pyrido[2,3-b][1,4,5]oxathiazepin]-2′(3′H)-yl)methyl)pyridin-2-yl)propanoic Acid] | < 1 nM | 17.2 nM
Cc1ccc([C@H](c2ccn3c(C(F)(F)F)nnc3c2C)C(C)(C)C(=O)O)nc1CN1CC2(CCOCC2)Oc2nc(OCCN3CCOCC3)ccc2S1(=O)=O (single isomer, unassigned) [Example 326, (*R)-2,2-Dimethyl-3-(8-methyl-3-(trifluoromethyl)-[1,2,4]triazolo[4,3-a]pyridin-7-yl)-3-(5-methyl-6-((7′-(2-morpholinoethoxy)-1′,1′-dioxido-2,3,5,6-tetrahydrospiro[pyran-4,4′-pyrido[2,3-b][1,4,5]oxathiazepin]-2′(3′H)-yl)methyl)pyridin-2-yl)propanoic Acid] | 3240 nM | 4600 nM
Cc1ccc([C@@H](c2ccc3c(nnn3CC3CC3)c2C)C(C)(C)C(=O)O)nc1CN1CC2(CCOCC2)Oc2nc(OCCN3CCOCC3)ccc2S1(=O)=O (single isomer, unassigned) [Example 328, (*S)-3-(1-(Cyclopropylmethyl)-4-methyl-1H-benzo[d][1,2,3]triazol-5-yl)-2,2-dimethyl-3-(5-methyl-6-((7′-(2-morpholinoethoxy)-1′,1′-dioxido-2,3,5,6-tetrahydrospiro[pyran-4,4′-pyrido[2,3-b][1,4,5]oxathiazepin]-2′(3′H)-yl)methyl)pyridin-2-yl)propanoic Acid] | < 1 nM | 3.3 nM
Cc1ccc([C@H](c2ccc3c(nnn3CC3CC3)c2C)C(C)(C)C(=O)O)nc1CN1CC2(CCOCC2)Oc2nc(OCCN3CCOCC3)ccc2S1(=O)=O (single isomer, unassigned) [Example 329, (*R)-3-(1-(Cyclopropylmethyl)-4-methyl-1H-benzo[d][1,2,3]triazol-5-yl)-2,2-dimethyl-3-(5-methyl-6-((7′-(2-morpholinoethoxy)-1′,1′-dioxido-2,3,5,6-tetrahydrospiro[pyran-4,4′-pyrido[2,3-b][1,4,5]oxathiazepin]-2′(3′H)-yl)methyl)pyridin-2-yl)propanoic Acid] | 1880 nM | 1900 nM

Further lines, with some results ahead:

Kd [1] | Structure (SMILES) | EC50 [2]
< 1 nM | Cc1cnc2c(c1)S(=O)(=O)N(Cc1cc([C@H](c3ccn4c(C(F)(F)F)nnc4c3)C(C)(C)C(=O)O)ccc1C)CC1(CC1)O2 (single isomer, unassigned) [Example 324, (*R)-2,2-Dimethyl-3-(4-methyl-3-((8′-methyl-1′,1′-dioxidospiro[cyclopropane-1,4′-pyrido[2,3-b][1,4,5]oxathiazepin]-2′(3′H)-yl)methyl)phenyl)-3-(3-(trifluoromethyl)-[1,2,4]triazolo[4,3-a]pyridin-7-yl)propanoic Acid] | 16.7 nM
1590 nM | Cc1cnc2c(c1)S(=O)(=O)N(Cc1cc([C@@H](c3cc4cc(C)nnc4n3C)C(C)(C)C(=O)O)ccc1C)CC1(CC1)O2 (single isomer, unassigned) [Example 330, (*S)-3-(3,7-Dimethyl-7H-pyrrolo[2,3-c]pyridazin-6-yl)-2,2-dimethyl-3-(4-methyl-3-((8′-methyl-1′,1′-dioxidospiro[cyclopropane-1,4′-pyrido[2,3-b][1,4,5]oxathiazepin]-2′(3′H)-yl)methyl)phenyl)propanoic Acid] | 7520 nM
< 1 nM | Cc1cnc2c(c1)S(=O)(=O)N(Cc1cc([C@H](c3cc4cc(C)nnc4n3C)C(C)(C)C(=O)O)ccc1C)CC1(CC1)O2 (single isomer, unassigned) [Example 331, (*R)-3-(3,7-Dimethyl-7H-pyrrolo[2,3-c]pyridazin-6-yl)-2,2-dimethyl-3-(4-methyl-3-((8′-methyl-1′,1′-dioxidospiro[cyclopropane-1,4′-pyrido[2,3-b][1,4,5]oxathiazepin]-2′(3′H)-yl)methyl)phenyl)propanoic Acid] | 17.1 nM
< 1 nM | Cc1cnc2c(c1)S(=O)(=O)N(Cc1cc([C@@H](c3ccn4c(C(F)F)nnc4c3C)C(C)(C)C(=O)O)ncc1C)CC1(CC1)O2 (single isomer, unassigned) [Example 332, (*S)-3-(3-(Difluoromethyl)-8-methyl-[1,2,4]triazolo[4,3-a]pyridin-7-yl)-2,2-dimethyl-3-(5-methyl-4-((8′-methyl-1′,1′-dioxidospiro[cyclopropane-1,4′-pyrido[2,3-b][1,4,5]oxathiazepin]-2′(3′H)-yl)methyl)pyridin-2-yl)propanoic acid] | 25.6 nM
1720 nM | Cc1cnc2c(c1)S(=O)(=O)N(Cc1cc([C@H](c3ccn4c(C(F)F)nnc4c3C)C(C)(C)C(=O)O)ncc1C)CC1(CC1)O2 (single isomer, unassigned) [Example 333, (*R)-3-(3-(difluoromethyl)-8-methyl-[1,2,4]triazolo[4,3-a]pyridin-7-yl)-2,2-dimethyl-3-(5-methyl-4-((8′-methyl-1′,1′-dioxidospiro[cyclopropane-1,4′-pyrido[2,3-b][1,4,5]oxathiazepin]-2′(3′H)-yl)methyl)pyridin-2-yl)propanoic Acid] | 3980 nM
< 1 nM | Cc1cnc2c(c1)S(=O)(=O)N(Cc1nc([C@@H](c3ccn4c(C(F)F)nnc4c3C)C(C)(C)C(=O)O)ccc1C)CC1(CC1)O2 (single isomer, unassigned) [Example 334, (*S)-3-(3-(Difluoromethyl)-8-methyl-[1,2,4]triazolo[4,3-a]pyridin-7-yl)-2,2-dimethyl-3-(5-methyl-6-((8′-methyl-1′,1′-dioxidospiro[cyclopropane-1,4′-pyrido[2,3-b][1,4,5]oxathiazepin]-2′(3′H)-yl)methyl)pyridin-2-yl)propanoic Acid] | 5.2 nM
